Where a SMILES comes first, the peptide text is derived from it. Bridges are numbered along the chain shown (N, C = ends). [ ]: non-standard residue; d: D form. The star is where a group is joined. ξ: configuration not given here. Bip = N[C@@H](Cc1ccc(-c2ccccc2)cc1)C(=O)O; Phe(3-Me) = Cc1cccc(C[C@H](N)C(=O)O)c1; Cha = N[C@@H](CC1CCCCC1)C(=O)O; NMeN = CN[C@@H](CC(N)=O)C(=O)O; Thr(3ξ) = CC(O)[C@H](N)C(=O)O; 12Ado = NCCCCCCCCCCCC(=O)O; Carboxymethyl = O=C(O)C*; NMeA = CN[C@@H](C)C(=O)O; Aun = NCCCCCCCCCCC(=O)O; Dab = NCC[C@H](N)C(=O)O; Dap = NC[C@H](N)C(=O)O
What follows are molecules tested against T1, PD-1/PD-L1 interaction (PE-labeled human PD-L1-Ig binding to Jurkat cell line over-expressing human PD-1) (Homo sapiens, UniProt Q15116) (assay: Jurkat-PD-1 Cell Binding High-Content Screening Assay (CBA)). Settings: Jurkat-hPD-1 cells, PE-labeled PD-L1-Ig 20 nM final; read-out: Jurkat HPD1 PDL1 IC50.
T1 construct: expressed in transfected cells; host or cells: Jurkat
T1 sequence (Q15116 25-288): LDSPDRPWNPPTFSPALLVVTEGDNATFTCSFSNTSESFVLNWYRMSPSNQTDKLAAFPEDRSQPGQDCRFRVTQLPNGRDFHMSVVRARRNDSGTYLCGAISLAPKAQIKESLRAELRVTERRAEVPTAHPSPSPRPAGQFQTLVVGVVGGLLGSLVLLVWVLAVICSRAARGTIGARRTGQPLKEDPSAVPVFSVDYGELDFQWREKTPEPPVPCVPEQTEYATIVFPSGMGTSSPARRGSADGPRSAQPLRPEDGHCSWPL
How it was run: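 Compound is added first to the PD-1-expressing Jurkat cells and held 2 h at 37 °C in serum-containing DMEM. The fluorescent PD-L1 fusion follows at 20 nM final for 1 h. Fixed, Hoechst-stained cells are then imaged for bound label.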

Structure (SMILES) | IC50 [nM]
Cc1cccc(C[C@@H]2NC(=O)[C@H](CC(=O)O)NC(=O)[C@H](Cc3ccc(OCC(=O)O)cc3)NC(=O)[C@H](CCCNC(=N)N)NC(=O)CSC[C@@H](C(=O)N[C@@H](CCN)C(=O)NCCCCCCCCCCC(=O)O)NC(=O)[C@H](C(C)O)NC(=O)[C@H](CO)NC(=O)[C@H](CC3CCCCC3)NC(=O)[C@H](CCN)NC(=O)[C@@H](CC(C)C)NC(=O)[C@H](C)N(C)C(=O)[C@H](Cc3ccc(OCC(=O)O)cc3)NC(=O)[C@H](Cc3ccc(-c4ccccc4)cc3)NC(=O)[C@H](Cc3ccc(OCC(=O)O)cc3)NC2=O)c1 (stereo partly drawn) [Example 2370] ({CH2CO}-RY(Carboxymethyl)D[Phe(3-Me)]Y(Carboxymethyl)[Bip]Y(Carboxymethyl)[NMeA][dL][Dab][Cha]S[Thr(3ξ)]C[Dab][Aun]-OH; thioether N-14) | 35.8
CC(=O)NCCCC[C@@H]1NC(=O)[C@H](Cc2ccc(-c3ccccc3)cc2)NC(=O)[C@H](C(C)C)NC(=O)[C@H](Cc2cccc(C)c2)NC(=O)[C@H](CC(=O)O)NC(=O)[C@H](Cc2ccc(OCC(=O)O)cc2)NC(=O)[C@H](Cc2ccc(OCC(=O)O)cc2)NC(=O)CSC[C@@H](C(=O)N[C@@H](CCN)C(=O)NCCCCCCCCCCC(=O)O)NC(=O)[C@H](CO)NC(=O)[C@H](C(C)O)NC(=O)[C@H](CC2CCCCC2)NC(=O)[C@H](CCN)NC(=O)[C@@H](CC(C)C)NC(=O)[C@H](C)N(C)C1=O (stereo partly drawn) [Example 2371] ({CH2CO}-Y(Carboxymethyl)Y(Carboxymethyl)D[Phe(3-Me)]V[Bip]K(Ac)[NMeA][dL][Dab][Cha][Thr(3ξ)]SC[Dab][Aun]-OH; thioether N-14) | 26.8
Cc1cccc(C[C@@H]2NC(=O)[C@H](CC(=O)O)NC(=O)[C@H](Cc3ccc(OCC(=O)O)cc3)NC(=O)[C@H](Cc3ccc(OCC(=O)O)cc3)NC(=O)CSC[C@@H](C(=O)N[C@@H](CCCCN)C(=O)NCCCCCCCCCCC(=O)O)NC(=O)[C@H](CN)NC(=O)[C@H](C(C)C)NC(=O)[C@H](CC3CCCCC3)NC(=O)[C@H](CCN)NC(=O)[C@@H](CC(C)C)NC(=O)[C@H](C)N(C)C(=O)[C@H](C(C)C)NC(=O)[C@H](Cc3ccc(-c4ccccc4)cc3)NC(=O)[C@H](C(C)C)NC2=O)c1 [Example 2376] ({CH2CO}-Y(Carboxymethyl)Y(Carboxymethyl)D[Phe(3-Me)]V[Bip]V[NMeA][dL][Dab][Cha]V[Dap]CK[Aun]-OH; thioether N-14) | 20.9
CC(=O)NCCCC[C@@H]1NC(=O)[C@H](Cc2ccc(-c3ccccc3)cc2)NC(=O)[C@H](Cc2ccc(O)cc2)NC(=O)[C@H](Cc2cccc(C)c2)NC(=O)[C@H](CC(=O)O)NC(=O)[C@H](Cc2ccc(OCC(=O)O)cc2)NC(=O)[C@H](Cc2ccc(OCC(=O)O)cc2)NC(=O)CSC[C@@H](C(=O)NCCCCCCCCCCC(=O)O)NC(=O)[C@H](C(C)O)NC(=O)[C@H](C(C)C)NC(=O)[C@H](CC2CCCCC2)NC(=O)[C@H](CCN)NC(=O)[C@@H](CC(C)C)NC(=O)[C@H](C)N(C)C1=O (stereo partly drawn) [Example 2379] ({CH2CO}-Y(Carboxymethyl)Y(Carboxymethyl)D[Phe(3-Me)]Y[Bip]K(Ac)[NMeA][dL][Dab][Cha]V[Thr(3ξ)]C[Aun]-OH; thioether N-14) | 38.9
CC(=O)NCCCC[C@@H]1NC(=O)[C@H](Cc2ccc(-c3ccccc3)cc2)NC(=O)[C@H](C(C)C)NC(=O)[C@H](Cc2cccc(C)c2)NC(=O)[C@H](CC(=O)O)NC(=O)[C@H](Cc2ccc(OCC(=O)O)cc2)NC(=O)[C@H](CCCNC(=N)N)NC(=O)CSC[C@@H](C(=O)N[C@@H](CCN)C(=O)NCCCCCCCCCCC(=O)O)NC(=O)[C@H](C(C)O)NC(=O)[C@H](C(C)C)NC(=O)[C@H](CC2CCCCC2)NC(=O)[C@H](CCN)NC(=O)[C@@H](CC(C)C)NC(=O)[C@H](C)N(C)C1=O (stereo partly drawn) [Example 2380] ({CH2CO}-RY(Carboxymethyl)D[Phe(3-Me)]V[Bip]K(Ac)[NMeA][dL][Dab][Cha]V[Thr(3ξ)]C[Dab][Aun]-OH; thioether N-14) | 14.6
Cc1cccc(C[C@@H]2NC(=O)[C@H](CC(=O)O)NC(=O)[C@H](Cc3ccc(OCC(=O)O)cc3)NC(=O)[C@H](CCCNC(=N)N)NC(=O)CSC[C@@H](C(=O)N(C)[C@@H](CC(N)=O)C(=O)NCCCCCCCCCCC(=O)O)NC(=O)[C@H](C(C)O)NC(=O)[C@H](C(C)C)NC(=O)[C@H](CC3CCCCC3)NC(=O)[C@H](CCN)NC(=O)[C@@H](CC(C)C)NC(=O)[C@H](C)N(C)C(=O)[C@H](C(C)C)NC(=O)[C@H](Cc3ccc(-c4ccccc4)cc3)NC(=O)[C@H](C(C)C)NC2=O)c1 (stereo partly drawn) [Example 2381] ({CH2CO}-RY(Carboxymethyl)D[Phe(3-Me)]V[Bip]V[NMeA][dL][Dab][Cha]V[Thr(3ξ)]C[NMeN][Aun]-OH; thioether N-14) | 33.8
Cc1cccc(C[C@@H]2NC(=O)[C@H](CC(=O)O)NC(=O)[C@H](Cc3ccc(OCC(=O)O)cc3)NC(=O)[C@H](Cc3ccc(OCC(=O)O)cc3)NC(=O)CSC[C@@H](C(=O)N[C@@H](CO)C(=O)NCCCCCCCCCCC(=O)O)NC(=O)[C@H](C(C)O)NC(=O)[C@H](C(C)O)NC(=O)[C@H](CC3CCCCC3)NC(=O)[C@H](CCN)NC(=O)[C@@H](CC(C)C)NC(=O)[C@H](C)N(C)C(=O)[C@H](CCCNC(=N)N)NC(=O)[C@H](Cc3ccc(-c4ccccc4)cc3)NC(=O)[C@H](C(C)C)NC2=O)c1 (stereo partly drawn) [Example 2383] ({CH2CO}-Y(Carboxymethyl)Y(Carboxymethyl)D[Phe(3-Me)]V[Bip]R[NMeA][dL][Dab][Cha][Thr(3ξ)][Thr(3ξ)]CS[Aun]-OH; thioether N-14) | 15.3
Cc1cccc(C[C@@H]2NC(=O)[C@H](CC(=O)O)NC(=O)[C@H](Cc3ccc(OCC(=O)O)cc3)NC(=O)[C@H](Cc3ccc(OCC(=O)O)cc3)NC(=O)CSC[C@@H](C(=O)N[C@@H](CO)C(=O)NCCCCCCCCCCC(=O)O)NC(=O)[C@H](C(C)O)NC(=O)[C@H](CN)NC(=O)[C@H](CC3CCCCC3)NC(=O)[C@H](CCN)NC(=O)[C@@H](CC(C)C)NC(=O)[C@H](C)N(C)C(=O)[C@H](CCCNC(=N)N)NC(=O)[C@H](Cc3ccc(-c4ccccc4)cc3)NC(=O)[C@H](C(C)C)NC2=O)c1 (stereo partly drawn) [Example 2384] ({CH2CO}-Y(Carboxymethyl)Y(Carboxymethyl)D[Phe(3-Me)]V[Bip]R[NMeA][dL][Dab][Cha][Dap][Thr(3ξ)]CS[Aun]-OH; thioether N-14) | 37.1
CC(=O)NCCCC[C@@H]1NC(=O)[C@H](Cc2ccc(-c3ccccc3)cc2)NC(=O)[C@H](C(C)C)NC(=O)[C@H](Cc2cccc(C)c2)NC(=O)[C@H](CC(=O)O)NC(=O)[C@H](Cc2ccc(OCC(=O)O)cc2)NC(=O)[C@H](CCCNC(=N)N)NC(=O)CSC[C@@H](C(=O)N[C@H](CCC(=O)O)C(=O)NCCCCCCCCCCCC(=O)O)NC(=O)[C@H](C(C)O)NC(=O)[C@H](C(C)C)NC(=O)[C@H](CC2CCCCC2)NC(=O)[C@H](CCN)NC(=O)[C@@H](CC(C)C)NC(=O)[C@H](C)N(C)C1=O (stereo partly drawn) [Example 2388] ({CH2CO}-RY(Carboxymethyl)D[Phe(3-Me)]V[Bip]K(Ac)[NMeA][dL][Dab][Cha]V[Thr(3ξ)]C[dE][12Ado]-OH; thioether N-14) | 8.3
